Patent publication US20240099951A1, “HAIR GROWTH STIMULANT” (ADJUVANT HOLDINGS CO., LTD., priority 2020, published 2024)

System: BALB/c-nu/nu mice
Assay: Evaluation of mitogenic activity (BrdU immunostaining of skin tissue)
Type: in vivo
Details: once per day for 7 days
Procedure: Dorsal body hair skin was collected from BALB/c-nu/nu mice (Japan SLC, Inc.; Japan) of age 7 to 8 weeks. Testing and breeding of animals complied with pertinent laws, regulations, ordinances, and guidelines, and was performed with the approval of the Experimental Ethics Review Board of the Institute of Physical and Chemical Research. The following drugs were respectively prepared. • Working Example: 3% phytosphingosine solution • Comparative Example: 60% aqueous ethanol solution A micropipette was used to apply 25 μL of the drug to the left and right dorsal regions of the BALB/c-nu/nu mice. A dryer was thereafter used to cause cool air to be directed at the location where this was applied and rapidly dry the drug. This procedure was carried out in repetitive fashion four times at each the left and right dorsal regions. This drug application procedure was carried out for seven days starting from the day following depilation. 24 hours and 48 hours prior to collection of dorsal body hair skin from BALB/c-nu/nu mice on which the drug had been applied for 7 days, a syringe (Terumo Corporation; Japan) was used to administer 0.5 mL of 10 mg/mL BrdU/physiological saline solution to the abdomen in the region of the hind legs of each mouse. Following euthanization by cervical dislocation of the BALB/c-nu/nu mice on the eighth day at the same time as when administration had been carried out, skin tissue was collected in a manner such as would not cause damage to the hair bulb. The collected skin tissue was immersed for 16 to 24 hours in SuperFix (Toyobo Co., Ltd.; Japan) fixative solution, following which this was washed four times in 1×PBS, placed in fresh 1X PBS, and stored. The necessary portion of the collected skin tissue was cut out therefrom, and a paraffin fluid exchange apparatus (Leica Microsystems GmbH; Germany) was used to fabricate a paraffin block therefrom. […] BrdU counts were measured at three locations of 100 μm^2 for the epidermal layer and the dermal layer, measurement being carried out at three sites of size on the same order for the hair follicle. […]

Question: Which “mitogenic activity (BrdU counts) as compared with the negative control and the positive control” value (3% phytosphingosine solution) does the source give for CCCCCCCCCCCCCC[C@@H](O)[C@@H](O)[C@@H](N)CO [phytosphingosine] here?
Answer: trend toward increased mitogenic activity

Question: What about the “mitogenic activity at the basal layer of the epidermis” value (3% phytosphingosine solution) of the same compound?
Answer: increase in mitogenic activity

Question: What about the “mitogenic activity at the hair follicle” value (3% phytosphingosine) of the same compound?
Answer: improved
